{"source": "paper PMC6979384", "about": "“Characterization of the plant homeodomain (PHD) reader family for their histone tail interactions” (Epigenetics & Chromatin, 2020)", "assay_in_all_cases": "Histone peptide microarray", "format_in_all_cases": "binding, human", "key": {"BPTF (PB)": {"test_system": "BPTF (PB)", "details": "GST-tagged BPTF (PB = PHD + Bromodomain); histone peptide array; arrays performed twice, n of 4", "procedure,_shortened": "(§1)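 Binding of recombinant GST-fused PHD readers (0.5 μM) is detected on an array of 293 histone peptides, modified singly or in combination. An optimized array protocol is followed, and each intensity is the average of quadruplicate measurements with standard deviation.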"}, "CHD5 (PCC)": {"test_system": "CHD5 (PCC)", "details": "GST-tagged CHD5 (PCC = PHD + Dual Chromodomain); histone peptide array; arrays performed twice, n of 4", "procedure,_shortened": "as §1"}, "BAZ2B": {"test_system": "BAZ2B", "details": "GST-tagged BAZ2B; histone peptide array; arrays performed twice, n of 4", "procedure,_shortened": "as §1"}, "KDM5A (1)": {"test_system": "KDM5A (1)", "details": "GST-tagged KDM5A (1); histone peptide array; arrays performed twice, n of 4", "procedure,_shortened": "as §1"}, "CHD4 (PPCC)": {"test_system": "CHD4 (PPCC)", "details": "GST-tagged CHD4 (PPCC = Dual PHD + Dual Chromodomain); histone peptide array; arrays performed twice, n of 4", "procedure,_shortened": "as §1"}, "CHD5 (PPCC)": {"test_system": "CHD5 (PPCC)", "details": "GST-tagged CHD5 (PPCC = Dual PHD + Dual Chromodomain); histone peptide array; arrays performed twice, n of 4", "procedure,_shortened": "as §1"}, "AIRE (PP)": {"test_system": "AIRE (PP)", "details": "GST-tagged AIRE (PP); histone peptide array; arrays performed twice, n of 4", "procedure,_shortened": "as §1"}, "TAF3": {"test_system": "TAF3", "details": "GST-tagged TAF3; histone peptide array; arrays performed twice, n of 4", "procedure,_shortened": "as §1"}, "TRIM66 (PB)": {"test_system": "TRIM66 (PB)", "details": "GST-tagged TRIM66 (PB = PHD + Bromodomain); histone peptide array; arrays performed twice, n of 4", "procedure,_shortened": "as §1"}, "KDM5B (3)": {"test_system": "KDM5B (3)", "details": "GST-tagged KDM5B (3); histone peptide array; arrays performed twice, n of 4", "procedure,_shortened": "as §1"}, "ING3": {"test_system": "ING3", "details": "GST-tagged ING3; histone peptide array; arrays performed twice, n of 4", "procedure,_shortened": "as §1"}, "PHRF1 (RP)": {"test_system": "PHRF1 (RP)", "details": "GST-tagged PHRF1 (RP); histone peptide array; arrays performed twice, n of 4", "procedure,_shortened": "as §1"}, "ING2": {"test_system": "ING2", "details": "GST-tagged ING2; histone peptide array; arrays performed twice, n of 4", "procedure,_shortened": "as §1"}, "PHF2": {"test_system": "PHF2", "details": "GST-tagged PHF2; histone peptide array; arrays performed twice, n of 4", "procedure,_shortened": "as §1"}, "PHF8": {"test_system": "PHF8", "details": "GST-tagged PHF8; histone peptide array; arrays performed twice, n of 4", "procedure,_shortened": "as §1"}, "PHF23": {"test_system": "PHF23", "details": "GST-tagged PHF23; histone peptide array; arrays performed twice, n of 4", "procedure,_shortened": "as §1"}, "KDM4C (TTP)": {"test_system": "KDM4C (TTP)", "details": "GST-tagged KDM4C (TTP = Tandem Tudor domain + PHD); histone peptide array; arrays performed twice, n of 4", "procedure,_shortened": "as §1"}, "RAG2": {"test_system": "RAG2", "details": "GST-tagged RAG2; histone peptide array; arrays performed twice, n of 4", "procedure,_shortened": "as §1"}, "ING4": {"test_system": "ING4", "details": "GST-tagged ING4; histone peptide array; arrays performed twice, n of 4", "procedure,_shortened": "as §1"}, "PHF21A": {"test_system": "PHF21A", "details": "GST-tagged PHF21A; histone peptide array; arrays performed twice, n of 4", "procedure,_shortened": "as §1"}, "KDM7A": {"test_system": "KDM7A", "details": "GST-tagged KDM7A; histone peptide array; arrays performed twice, n of 4", "procedure,_shortened": "as §1"}, "MORC3 (CW)": {"test_system": "MORC3 (CW)", "details": "GST-tagged MORC3 (CW = CW-type Zn-finger); histone peptide array; arrays performed twice, n of 4", "procedure,_shortened": "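Each reader, produced as a GST fusion and purified, was tested at 0.5 μM on synthetic histone peptides (293 in total) carrying single or combinatorial marks. Intensities averaged over four replicates.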"}, "ING1": {"test_system": "ING1", "details": "GST-tagged ING1; histone peptide array; arrays performed twice, n of 4", "procedure,_shortened": "as §1"}, "PHF13": {"test_system": "PHF13", "details": "GST-tagged PHF13; histone peptide array; arrays performed twice, n of 4", "procedure,_shortened": "as §1"}, "MLL5": {"test_system": "MLL5", "details": "GST-tagged MLL5; histone peptide array; arrays performed twice, n of 4", "procedure,_shortened": "as §1"}, "SP140L": {"test_system": "SP140L", "details": "GST-tagged SP140L; histone peptide array; arrays performed twice, n of 4", "procedure,_shortened": "as §1"}, "ING5": {"test_system": "ING5", "details": "GST-tagged ING5; histone peptide array; arrays performed twice, n of 4", "procedure,_shortened": "as §1"}, "DPF2 (PPC2W2)": {"test_system": "DPF2 (PPC2W2)", "details": "GST-tagged DPF2 (PPC2W2 = Dual PHD + C2W2-type Zn-finger); histone peptide array; arrays performed twice, n of 4", "procedure,_shortened": "as §1"}, "KDM5A (3)": {"test_system": "KDM5A (3)", "details": "GST-tagged KDM5A (3); histone peptide array; arrays performed twice, n of 4", "procedure,_shortened": "as §1"}, "KDM5B (1)": {"test_system": "KDM5B (1)", "details": "GST-tagged KDM5B (1); histone peptide array; arrays performed twice, n of 4", "procedure,_shortened": "as §1"}, "DIDO1": {"test_system": "DIDO1", "details": "GST-tagged DIDO1; histone peptide array; arrays performed twice, n of 4", "procedure,_shortened": "as §1"}}}
{"substance": "H3R2me1 + K4me3: H3 1-20", "values": [{"measurement": "Array Heatmap signal, BPTF (PB)", "setting": "BPTF (PB)", "value": 0.4045}, {"measurement": "Array Heatmap signal, CHD5 (PCC)", "setting": "CHD5 (PCC)", "value": 0.789}, {"measurement": "Array Heatmap signal, BAZ2B", "setting": "BAZ2B", "value": 0.4816}, {"measurement": "Array Heatmap signal, KDM5A (1)", "setting": "KDM5A (1)", "value": 0.4891}, {"measurement": "Array Heatmap signal, CHD4 (PPCC)", "setting": "CHD4 (PPCC)", "value": 0.5344}, {"measurement": "Array Heatmap signal, CHD5 (PPCC)", "setting": "CHD5 (PPCC)", "value": 0.5498}, {"measurement": "Array Heatmap signal, AIRE (PP)", "setting": "AIRE (PP)", "value": 0.5251}, {"measurement": "Array Heatmap signal, TAF3", "setting": "TAF3", "value": 0.4375}, {"measurement": "Array Heatmap signal, TRIM66 (PB)", "setting": "TRIM66 (PB)", "value": 0.573}, {"measurement": "Array Heatmap signal, KDM5B (3)", "setting": "KDM5B (3)", "value": 0.6417}, {"measurement": "Array Heatmap signal, ING3", "setting": "ING3", "value": 0.5249}, {"measurement": "Array Heatmap signal, PHRF1 (RP)", "setting": "PHRF1 (RP)", "value": 0.4461}, {"measurement": "Array Heatmap signal, ING2", "setting": "ING2", "value": 0.6934}, {"measurement": "Array Heatmap signal, PHF2", "setting": "PHF2", "value": 0.6232}, {"measurement": "Array Heatmap signal, PHF8", "setting": "PHF8", "value": 0.5511}, {"measurement": "Array Heatmap signal, PHF23", "setting": "PHF23", "value": 0.6587}, {"measurement": "Array Heatmap signal, KDM4C (TTP)", "setting": "KDM4C (TTP)", "value": 0.6626}, {"measurement": "Array Heatmap signal, RAG2", "setting": "RAG2", "value": 0.5131}, {"measurement": "Array Heatmap signal, ING4", "setting": "ING4", "value": 0.4768}, {"measurement": "Array Heatmap signal, PHF21A", "setting": "PHF21A", "value": 0.4726}, {"measurement": "Array Heatmap signal, KDM7A", "setting": "KDM7A", "value": 0.6442}, {"measurement": "Array Heatmap signal, MORC3 (CW)", "setting": "MORC3 (CW)", "value": 0.559}, {"measurement": "Array Heatmap signal, ING1", "setting": "ING1", "value": 0.6223}, {"measurement": "Array Heatmap signal, PHF13", "setting": "PHF13", "value": 0.6851}, {"measurement": "Array Heatmap signal, MLL5", "setting": "MLL5", "value": 0.6848}, {"measurement": "Array Heatmap signal, SP140L", "setting": "SP140L", "value": 0.3558}, {"measurement": "Array Heatmap signal, ING5", "setting": "ING5", "value": 0.3615}, {"measurement": "Array Heatmap signal, DPF2 (PPC2W2)", "setting": "DPF2 (PPC2W2)", "value": 0.645}, {"measurement": "Array Heatmap signal, KDM5A (3)", "setting": "KDM5A (3)", "value": 0.7567}, {"measurement": "Array Heatmap signal, KDM5B (1)", "setting": "KDM5B (1)", "value": 0.7101}, {"measurement": "Array Heatmap signal, DIDO1", "setting": "DIDO1", "value": 0.7532}]}
